Experimental findings from ChEMBL document CHEMBL4819140, “A novel GSK-3 inhibitor binds to GSK-3β via a reversible, time and Cys-199-dependent mechanism” (Bioorg Med Chem, 2021) are described below.

Calls of active or inactive are those of the source. The rule behind the calls is not given here.

Series [1] concerns the target T1, Glycogen synthase kinase-3 beta (Homo sapiens, UniProt P49841). The experiment in a line: Inhibition of human GSK-3beta incubated with substrate in presence of ATP measured by serial dilution assay.
Target sequence in this assay (P49841 whole entry): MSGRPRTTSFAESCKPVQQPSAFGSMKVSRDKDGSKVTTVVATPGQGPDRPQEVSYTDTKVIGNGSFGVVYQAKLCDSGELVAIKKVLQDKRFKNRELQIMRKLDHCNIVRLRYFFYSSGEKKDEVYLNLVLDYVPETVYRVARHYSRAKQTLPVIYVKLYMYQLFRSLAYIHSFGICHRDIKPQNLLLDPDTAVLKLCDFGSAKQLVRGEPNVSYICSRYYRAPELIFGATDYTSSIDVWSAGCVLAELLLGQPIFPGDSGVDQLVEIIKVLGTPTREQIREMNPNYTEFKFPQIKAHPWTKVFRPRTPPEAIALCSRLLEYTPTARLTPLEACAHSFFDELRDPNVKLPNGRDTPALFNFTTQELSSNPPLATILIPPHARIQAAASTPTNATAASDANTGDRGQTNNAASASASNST
Series [2] concerns the target T1, Glycogen synthase kinase-3 beta. The experiment in a line: Inhibition of human GSK-3beta preincubated for 3 hrs followed by ATP and substrate addition measured by serial dilution assay.
Target sequence in this assay (P49841 whole entry): as above
The target is the same in series [3]. The conditions noted are these: dose 700.0 nM.
Target sequence in this assay (P49841 whole entry, looked up): as the sequence (P49841 whole entry) above
Description: Reversible inhibition of recombinant human GSK-3beta at 700 nM incubated with substrate and ATP master mix solution by jump dilution assays
For series [4] the target is unchanged. Particulars: dose 200.0 nM.
Target sequence in this assay (P49841 whole entry, looked up): as the sequence (P49841 whole entry) above
Series [5] shares this target. The conditions noted are these: dose 100.0 nM.
Target sequence in this assay (P49841 whole entry, looked up): as the sequence (P49841 whole entry) above
Series [6] has the same target. Particulars: dose 400.0 nM, time 4.5 hrs.
Target sequence in this assay (P49841 whole entry, looked up): as the sequence (P49841 whole entry) above
For series [7] the target is unchanged. The experiment in a line: Inhibition of human GSK-3beta assessed as decrease in relative fluorescence unit measured upto 60 mins by kinase-profiling analysis. Particulars: time min <=60, TDE = time-dependent effect.
Target sequence in this assay (P49841 whole entry, looked up): as the sequence (P49841 whole entry) above
Series [8] shares this target. The series can be described thus: Reversible inhibition of recombinant human GSK-3beta at 10 uM preincubated for 3 hrs followed by diluted with substrate and ATP master mix solution measured upto 1.5 hrs by jump dilution assays. Particulars: time 4.5 hrs, TDE = time-dependent effect.
Target sequence in this assay (P49841 whole entry, looked up): as the sequence (P49841 whole entry) above
The target is the same in series [9]. The series can be described thus: Reversible inhibition of recombinant human GSK-3beta at 10 uM preincubated for 3 hrs followed by diluted with substrate and ATP master mix solution measured first 30 mins by jump dilution assays. Particulars: time 3.5 hrs.
The target is the same in series [10]. The series can be described thus: Reversible inhibition of recombinant human GSK-3beta at 70 uM preincubated for 3 hrs followed by diluted with substrate and ATP master mix solution measured upto 1.5 hrs by jump dilution assays relative to control. Particulars: time 4.5 hrs.
For series [11], the target named is AP2-associated protein kinase 1 (Homo sapiens) (UniProt Q2M2I8). The series can be described thus: Inhibition of human recombinant AAK1 by Lanthascreen assay. The conditions noted are these: concentration not given here. A general note: In TR-FRET formats the signal depends on donor and acceptor labels being close together.
Series [12] has as its target Cyclin-dependent kinase-like 5 (Homo sapiens) (UniProt O76039). The series can be described thus: Inhibition of human recombinant CDKL5 in presence of ATP by Z-lyte kinase assay. Particulars: concentration not given here.
Series [13] has as its target Vascular endothelial growth factor receptor 1 (Homo sapiens) (UniProt P17948). The experiment in a line: Inhibition of human recombinant FLT1 in presence of ATP by Z-lyte kinase assay. Particulars: concentration not given here.
The target of series [14] is Receptor-type tyrosine-protein kinase FLT3 (Homo sapiens) (UniProt P36888). The experiment in a line: Inhibition of human recombinant FLT3 in presence of ATP by Z-lyte kinase assay. Particulars: concentration not given here.
Series [15] concerns the target Vascular endothelial growth factor receptor 3 (Homo sapiens) (UniProt P35916). The series can be described thus: Inhibition of human recombinant FLT4 in presence of ATP by Z-lyte kinase assay. The conditions noted are these: concentration not given here.
Series [16] addresses Cyclin-G-associated kinase (Homo sapiens) (UniProt O14976). The series can be described thus: Inhibition of human recombinant GAK by Lanthascreen assay. Particulars: concentration not given here.
Series [17] addresses Glycogen synthase kinase-3 alpha (Homo sapiens) (UniProt P49840). The experiment in a line: Inhibition of human recombinant GSK3A in presence of ATP by Z-lyte kinase assay. The conditions noted are these: concentration not given here.
In series [18] the target is T1, Glycogen synthase kinase-3 beta. The series can be described thus: Inhibition of human recombinant GSK3B in presence of ATP by Z-lyte kinase assay. Particulars: concentration not given here.
The target in series [19] is Mast/stem cell growth factor receptor Kit (Homo sapiens) (UniProt P10721). The experiment in a line: Inhibition of human recombinant KIT in presence of ATP by Z-lyte kinase assay. Particulars: concentration not given here.
The target in series [20] is Dual specificity mitogen-activated protein kinase kinase 1 (Homo sapiens) (UniProt Q02750). The series can be described thus: Inhibition of human recombinant MAP2K1 in presence of ATP by Z-lyte kinase assay. The conditions noted are these: concentration not given here.
Sequence of Dual specificity mitogen-activated protein kinase kinase 1 (Homo sapiens) (Q02750 whole entry): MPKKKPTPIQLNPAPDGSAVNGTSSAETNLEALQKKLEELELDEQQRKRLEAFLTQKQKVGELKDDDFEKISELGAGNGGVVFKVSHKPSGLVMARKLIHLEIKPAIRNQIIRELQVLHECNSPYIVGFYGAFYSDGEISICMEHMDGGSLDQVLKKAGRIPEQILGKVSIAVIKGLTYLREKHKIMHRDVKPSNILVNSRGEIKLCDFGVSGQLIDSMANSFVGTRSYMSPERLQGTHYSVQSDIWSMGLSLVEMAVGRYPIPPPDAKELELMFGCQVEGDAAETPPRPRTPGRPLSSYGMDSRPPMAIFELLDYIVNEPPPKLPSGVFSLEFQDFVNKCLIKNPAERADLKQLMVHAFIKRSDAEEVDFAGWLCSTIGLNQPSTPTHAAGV
The target is the same in series [21]. The series can be described thus: Inhibition of human recombinant MAP2K1 by Lanthascreen assay. Particulars: concentration not given here.
Series [22] addresses Dual specificity mitogen-activated protein kinase kinase 2 (Homo sapiens) (UniProt P36507). The experiment in a line: Inhibition of human recombinant MAP2K2 in presence of 100 uM ATP by Z-lyte kinase assay.
For series [23] the target is unchanged. The series can be described thus: Inhibition of human recombinant MAP2K2 by Lanthascreen assay. Particulars: concentration not given here.
Series [24] has as its target Dual specificity mitogen-activated protein kinase kinase 3 (Homo sapiens) (UniProt P46734). The experiment in a line: Inhibition of human recombinant MAP2K3 by Lanthascreen assay. Particulars: concentration not given here.
The target in series [25] is Dual specificity mitogen-activated protein kinase kinase 4 (Homo sapiens) (UniProt P45985). The series can be described thus: Inhibition of human recombinant MAP2K4 by Lanthascreen assay. The conditions noted are these: concentration not given here.
Series [26] concerns the target Dual specificity mitogen-activated protein kinase kinase 5 (Homo sapiens) (UniProt Q13163). The series can be described thus: Inhibition of human recombinant MAP2K5 by Lanthascreen assay. The conditions noted are these: concentration not given here.
Series [27] concerns the target Mitogen-activated protein kinase kinase kinase 7 (Homo sapiens) (UniProt O43318). The series can be described thus: Inhibition of human recombinant MAP3K7 by Lanthascreen assay. Particulars: concentration not given here.
In series [28] the target is Mitogen-activated protein kinase 1 (Homo sapiens) (UniProt P28482). The series can be described thus: Inhibition of human recombinant MAPK1 in presence of ATP by Z-lyte kinase assay. The conditions noted are these: concentration not given here.
Sequence of Mitogen-activated protein kinase 1 (Homo sapiens) (P28482 whole entry): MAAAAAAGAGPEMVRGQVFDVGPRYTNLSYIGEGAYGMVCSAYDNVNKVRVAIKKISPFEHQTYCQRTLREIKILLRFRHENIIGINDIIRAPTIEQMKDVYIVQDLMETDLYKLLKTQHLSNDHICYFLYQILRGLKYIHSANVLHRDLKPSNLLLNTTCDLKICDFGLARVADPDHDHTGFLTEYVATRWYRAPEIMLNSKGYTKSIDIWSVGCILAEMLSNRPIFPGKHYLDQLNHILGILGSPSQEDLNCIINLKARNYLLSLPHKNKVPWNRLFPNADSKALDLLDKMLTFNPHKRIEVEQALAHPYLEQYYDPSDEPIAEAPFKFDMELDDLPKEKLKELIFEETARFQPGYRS
The target in series [29] is Mitogen-activated protein kinase 15 (Homo sapiens) (UniProt Q8TD08). The experiment in a line: Inhibition of human recombinant MAPK15 by Lanthascreen assay. Particulars: concentration not given here.
In series [30] the target is Mitogen-activated protein kinase 3 (Homo sapiens) (UniProt P27361). The series can be described thus: Inhibition of human recombinant MAPK3 in presence of ATP by Z-lyte kinase assay. Particulars: concentration not given here.
For series [31], the target named is MAP kinase-activated protein kinase 5 (Homo sapiens) (UniProt Q8IW41). The series can be described thus: Inhibition of human recombinant PRAK in presence of ATP by Z-lyte kinase assay. The conditions noted are these: concentration not given here.
In series [32] the target is MAP kinase-interacting serine/threonine-protein kinase 1 (Homo sapiens) (UniProt Q9BUB5). The experiment in a line: Inhibition of human recombinant MNK1 in presence of ATP by Z-lyte kinase assay. The conditions noted are these: concentration not given here.
In series [33] the target is MAP kinase-interacting serine/threonine-protein kinase 2 (Homo sapiens) (UniProt Q9HBH9). The experiment in a line: Inhibition of human recombinant MNK2 by Lanthascreen assay. Particulars: concentration not given here.
Series [34] addresses Serine/threonine-protein kinase NLK (Homo sapiens) (UniProt Q9UBE8). The experiment in a line: Inhibition of human recombinant NLK by Lanthascreen assay. The conditions noted are these: concentration not given here.
Series [35] concerns the target Platelet-derived growth factor receptor alpha (Homo sapiens) (UniProt P16234). The experiment in a line: Inhibition of human recombinant PDGFRA in presence of ATP by Z-lyte kinase assay. Particulars: concentration not given here.
The target of series [36] is Platelet-derived growth factor receptor beta (Homo sapiens) (UniProt P09619). The series can be described thus: Inhibition of human recombinant PDGFRB in presence of ATP by Z-lyte kinase assay. Particulars: concentration not given here.
In series [37] the target is Serine/threonine-protein kinase D3 (Homo sapiens) (UniProt O94806). The series can be described thus: Inhibition of human recombinant PKD3 in presence of ATP by Z-lyte kinase assay. Particulars: concentration not given here.
Sequence of Serine/threonine-protein kinase D3 (Homo sapiens) (O94806 whole entry): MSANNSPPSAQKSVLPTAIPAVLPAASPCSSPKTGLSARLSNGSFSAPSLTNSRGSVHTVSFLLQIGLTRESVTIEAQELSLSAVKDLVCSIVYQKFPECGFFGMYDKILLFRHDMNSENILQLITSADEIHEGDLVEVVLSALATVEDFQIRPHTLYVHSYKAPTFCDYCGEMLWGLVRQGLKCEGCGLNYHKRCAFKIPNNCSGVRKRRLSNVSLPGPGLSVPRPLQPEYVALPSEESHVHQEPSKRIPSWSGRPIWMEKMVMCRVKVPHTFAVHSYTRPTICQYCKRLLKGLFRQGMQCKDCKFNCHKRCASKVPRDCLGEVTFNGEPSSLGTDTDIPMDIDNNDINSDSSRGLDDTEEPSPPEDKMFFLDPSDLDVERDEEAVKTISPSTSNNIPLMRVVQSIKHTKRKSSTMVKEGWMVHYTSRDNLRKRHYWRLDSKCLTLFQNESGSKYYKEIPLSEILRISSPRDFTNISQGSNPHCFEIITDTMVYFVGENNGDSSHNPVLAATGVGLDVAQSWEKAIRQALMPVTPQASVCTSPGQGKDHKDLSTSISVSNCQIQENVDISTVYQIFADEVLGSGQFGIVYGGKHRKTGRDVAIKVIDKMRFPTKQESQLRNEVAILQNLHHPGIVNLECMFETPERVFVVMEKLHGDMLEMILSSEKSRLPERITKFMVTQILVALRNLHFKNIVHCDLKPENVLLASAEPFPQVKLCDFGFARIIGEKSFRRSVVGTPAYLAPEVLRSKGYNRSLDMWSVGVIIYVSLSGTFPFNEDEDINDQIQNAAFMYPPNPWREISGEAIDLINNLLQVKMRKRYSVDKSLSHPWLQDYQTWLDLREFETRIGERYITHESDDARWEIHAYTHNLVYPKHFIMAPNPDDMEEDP
Series [38] addresses Serine/threonine-protein kinase D2 (Homo sapiens) (UniProt Q9BZL6). The experiment in a line: Inhibition of human recombinant PKD2 in presence of ATP by Z-lyte kinase assay. The conditions noted are these: concentration not given here.
The target of series [39] is Ribosomal protein S6 kinase alpha-1 (Homo sapiens) (UniProt Q15418). The series can be described thus: Inhibition of human recombinant RSK1 in presence of ATP by Z-lyte kinase assay. The conditions noted are these: concentration not given here.
For series [40], the target named is Ribosomal protein S6 kinase alpha-2 (Homo sapiens) (UniProt Q15349). The experiment in a line: Inhibition of human recombinant RSK3 in presence of ATP by Z-lyte kinase assay. The conditions noted are these: concentration not given here.
The target in series [41] is Ribosomal protein S6 kinase alpha-3 (Homo sapiens) (UniProt P51812). The series can be described thus: Inhibition of human recombinant RSK2 in presence of ATP by Z-lyte kinase assay. Particulars: concentration not given here.
For series [42], the target named is Ribosomal protein S6 kinase alpha-6 (Homo sapiens) (UniProt Q9UK32). The experiment in a line: Inhibition of human recombinant RSK4 in presence of ATP by Z-lyte kinase assay. The conditions noted are these: concentration not given here.
Series [43] addresses TGF-beta receptor type-2 (Homo sapiens) (UniProt P37173). The series can be described thus: Inhibition of human recombinant TGFBR2 by Lanthascreen assay. Particulars: concentration not given here.
For series [44], the target named is Mitogen-activated protein kinase kinase kinase 20 (Homo sapiens) (UniProt Q9NYL2). The experiment in a line: Inhibition of human recombinant ZAK by Lanthascreen assay. The conditions noted are these: concentration not given here.
The target of series [45] is Glycogen synthase kinase-3 beta (Homo sapiens, UniProt P49841, C199A). The experiment in a line: Inhibition of human GSK-3beta C199A mutant incubated with substrate in presence of ATP measured by serial dilution assay.
Series [46] can be described thus: Thiol reactivity of the compound with ethanethiol DTT by HPLC analysis. The format is physicochemical.
Series [47] in a line: Thiol reactivity of the compound with tri-butylphosphine by HPLC analysis. It is filed as physicochemical.

A word on the IC50: it is the point on the concentration scale where inhibition reaches its midpoint. As usually defined, the inhibition is the change of the read-out against control, counted positive when it falls.

Sequence of Dual specificity mitogen-activated protein kinase kinase 2 (Homo sapiens) (P36507 whole entry): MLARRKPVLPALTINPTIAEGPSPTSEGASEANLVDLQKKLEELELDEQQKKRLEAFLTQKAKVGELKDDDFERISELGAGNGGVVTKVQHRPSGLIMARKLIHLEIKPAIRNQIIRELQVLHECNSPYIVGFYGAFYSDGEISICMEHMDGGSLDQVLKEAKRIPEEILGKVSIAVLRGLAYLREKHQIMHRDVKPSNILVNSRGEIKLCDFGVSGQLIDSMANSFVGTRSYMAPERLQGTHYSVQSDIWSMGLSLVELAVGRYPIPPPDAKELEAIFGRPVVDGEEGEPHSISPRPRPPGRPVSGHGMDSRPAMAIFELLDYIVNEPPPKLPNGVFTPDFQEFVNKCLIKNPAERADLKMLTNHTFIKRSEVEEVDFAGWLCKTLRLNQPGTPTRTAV
Sequence of Platelet-derived growth factor receptor alpha (Homo sapiens) (P16234 whole entry): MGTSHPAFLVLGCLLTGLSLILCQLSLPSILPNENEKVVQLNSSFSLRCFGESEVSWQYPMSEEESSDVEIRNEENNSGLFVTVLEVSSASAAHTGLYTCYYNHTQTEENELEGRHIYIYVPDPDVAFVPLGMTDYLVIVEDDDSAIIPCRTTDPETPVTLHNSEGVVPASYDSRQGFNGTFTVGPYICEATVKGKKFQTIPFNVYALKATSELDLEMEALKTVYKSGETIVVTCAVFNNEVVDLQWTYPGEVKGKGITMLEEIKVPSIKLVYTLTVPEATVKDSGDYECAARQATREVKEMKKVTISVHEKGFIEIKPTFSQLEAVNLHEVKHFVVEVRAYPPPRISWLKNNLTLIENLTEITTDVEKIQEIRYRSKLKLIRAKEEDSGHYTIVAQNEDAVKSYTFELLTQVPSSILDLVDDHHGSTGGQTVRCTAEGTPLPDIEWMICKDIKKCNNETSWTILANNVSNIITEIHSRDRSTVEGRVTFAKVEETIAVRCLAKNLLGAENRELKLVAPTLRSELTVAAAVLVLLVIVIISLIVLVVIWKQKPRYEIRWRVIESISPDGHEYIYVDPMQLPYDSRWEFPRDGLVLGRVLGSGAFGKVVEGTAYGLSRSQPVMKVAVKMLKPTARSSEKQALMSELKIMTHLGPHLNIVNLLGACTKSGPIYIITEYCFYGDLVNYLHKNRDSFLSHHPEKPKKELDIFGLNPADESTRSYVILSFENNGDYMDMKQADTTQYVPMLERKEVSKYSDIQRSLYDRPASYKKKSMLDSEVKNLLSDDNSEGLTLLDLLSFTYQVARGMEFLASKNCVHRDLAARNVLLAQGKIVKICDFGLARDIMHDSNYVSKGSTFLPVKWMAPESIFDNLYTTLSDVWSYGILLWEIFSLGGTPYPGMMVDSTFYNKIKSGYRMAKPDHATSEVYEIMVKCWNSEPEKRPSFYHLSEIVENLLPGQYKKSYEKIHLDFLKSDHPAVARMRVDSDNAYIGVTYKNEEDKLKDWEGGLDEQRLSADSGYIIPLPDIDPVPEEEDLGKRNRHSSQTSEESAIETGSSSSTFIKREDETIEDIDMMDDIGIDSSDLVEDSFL
Sequence of Dual specificity mitogen-activated protein kinase kinase 5 (Homo sapiens) (Q13163 whole entry): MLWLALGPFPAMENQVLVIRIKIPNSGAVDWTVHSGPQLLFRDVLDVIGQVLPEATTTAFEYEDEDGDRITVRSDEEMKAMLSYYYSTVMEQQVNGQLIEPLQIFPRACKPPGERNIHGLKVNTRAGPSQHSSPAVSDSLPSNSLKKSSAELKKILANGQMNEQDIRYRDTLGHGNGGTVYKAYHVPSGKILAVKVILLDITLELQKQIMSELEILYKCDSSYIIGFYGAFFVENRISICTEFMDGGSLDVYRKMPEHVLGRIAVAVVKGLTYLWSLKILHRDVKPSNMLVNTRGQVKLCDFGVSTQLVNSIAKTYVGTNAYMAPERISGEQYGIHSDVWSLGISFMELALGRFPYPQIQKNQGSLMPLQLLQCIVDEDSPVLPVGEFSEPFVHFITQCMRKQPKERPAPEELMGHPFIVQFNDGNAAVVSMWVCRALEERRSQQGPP
Sequence of Dual specificity mitogen-activated protein kinase kinase 3 (Homo sapiens) (P46734 whole entry): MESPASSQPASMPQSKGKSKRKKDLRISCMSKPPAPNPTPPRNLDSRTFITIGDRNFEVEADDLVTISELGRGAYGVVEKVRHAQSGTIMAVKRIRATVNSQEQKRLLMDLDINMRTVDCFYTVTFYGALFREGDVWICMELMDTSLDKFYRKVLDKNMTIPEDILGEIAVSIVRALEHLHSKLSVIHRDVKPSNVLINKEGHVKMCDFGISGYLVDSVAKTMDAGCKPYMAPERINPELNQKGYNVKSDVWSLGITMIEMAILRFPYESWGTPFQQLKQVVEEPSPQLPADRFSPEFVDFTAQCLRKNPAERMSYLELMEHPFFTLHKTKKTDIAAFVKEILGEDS

As to `COc1cc(O)c2c(c1)[C@H]1O[C@@H]1C[C@H](O)[C@H](O)C(=O)/C=C\C[C@H](C)OC2=O` [HYPOTHEMYCIN], the IC50 is 11300 nM in [1] and 663 nM in series [2]. Moreover, the inhibition result in series [3], in series [4] and in series [5] was “inactive” each time.
Take `O=C1Cc2c([nH]c3ccc([N+](=O)[O-])cc23)-c2ccccc2N1`: in [6], the inhibition result is “Active”.
For `OC1(c2ccccc2)CSC(=S)N1Cc1ccncc1` (configuration not stated), the inhibition result in series [7] is “Tde”; in [8] it was “Tde”; in [11], 11%; in [12], 3.2%; in [13] it was 0%; in series [14] it was 2%. The inhibition in series [15] was determined as 1.9%; in [16] it was 24%; in series [17], 91%; in series [18], 89%; in [19] it was 4%; in series [20] it was 6%. For the same molecule, the inhibition in [21] amounted to 5%; in series [22] it was 7%; in series [23], 4%; in series [24], 7%; in series [25] it was 12%; in [26], 1%. Moreover, the inhibition in [27] was 21%; in series [28], 29%; in [29], 26%; in [30] it was 26%; in series [31] it was 60%; in series [32] it was -2%. In addition, the inhibition was 1% in series [33]; 24% in [34]; -2% in series [35]; -2% in [36]; 10% in series [37]; 11% in series [38]. The inhibition in series [39] was determined as 6%; in series [40] it was 9%; in series [41], 11%; in [42], 18%; in series [43], 20%; in [44], 9%. In addition, the inhibition entry in series [9] and in series [10] was “Active” throughout. The IC50 in series [1] came to 370 nM; in series [2], 102 nM; in series [45], 121000 nM. Also, the Drug metabolism result in [46] and in [47] was “Metabolite_Notdetected” each time. For the same molecule, the inhibition entry in [3], in series [4] and in series [5] was “inactive” each time.
